Test results as given in patent US20200260700A1, “Transgenic Insect and Use of Same in Methods for Testing Natural or Synthetic Substances” (Robert Bosch Gesellschaft für Medizinische Forschung mbH, priority 2017, published 2020).

Molecular target: human SLC22A1/OCT1 protein (Homo sapiens, UniProt O15245)
Conditions: ethidium bromide and cimetidine simultaneously injected into ventral side of Drosophila melanogaster embryos expressing OCT1/SLC22A1 reference sequence in salivary glands (GAL4/UAS); confocal laser scanning microscopy
Experimental: The salivary glands are moreover characterized by the tissue-specific expression of GFP. These living embryos were injected with 0.5 μM ethidium bromide. The accumulation of ethidium bromide in the salivary glands was visualized by confocal laser scanning microscopy.
The salivary glands are moreover characterized by the tissue-specific expression of GFP. Ethidium bromide and cimetidine were simultaneously injected into the ventral side of the embryos.

Chain of human SLC22A1/OCT1 protein (O15245 whole entry, the tested form may be a part): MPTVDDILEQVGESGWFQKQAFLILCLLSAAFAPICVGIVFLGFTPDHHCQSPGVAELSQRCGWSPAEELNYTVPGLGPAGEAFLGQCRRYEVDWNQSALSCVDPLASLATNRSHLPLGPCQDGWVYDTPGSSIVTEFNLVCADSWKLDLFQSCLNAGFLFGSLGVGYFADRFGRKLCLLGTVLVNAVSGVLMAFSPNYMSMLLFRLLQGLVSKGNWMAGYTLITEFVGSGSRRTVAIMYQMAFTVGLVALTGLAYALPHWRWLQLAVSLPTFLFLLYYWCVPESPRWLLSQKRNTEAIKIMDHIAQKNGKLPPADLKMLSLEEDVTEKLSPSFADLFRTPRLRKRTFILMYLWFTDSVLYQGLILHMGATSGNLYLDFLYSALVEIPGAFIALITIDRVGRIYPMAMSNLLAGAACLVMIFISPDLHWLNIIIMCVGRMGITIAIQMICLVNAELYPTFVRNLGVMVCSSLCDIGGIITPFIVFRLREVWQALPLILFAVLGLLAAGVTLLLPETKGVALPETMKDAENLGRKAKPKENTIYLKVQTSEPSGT

inhibition of the uptake of ethidium bromide: concentration-dependent
Structure (SMILES): CN/C(=N/CCSCc1nc[nH]c1C)NC#N [cimetidine]
